Measurements: patent US8329859B2, “Peptides that home to tumor lymphatic vasculature and methods of using same” (Sanford-Burnham Medical Research Institute, priority 2001, dated 2012)
Entries after “also recorded” stand apart in the source; their conditions may differ. No end group written: not given here.

Experiments:
[1] = system: normal tissues; assay: Localization of fluorescent peptide in normal tissues after intravenous injection; format: in vivo, mouse
Method: Several normal tissues also were studied for localization of the CGNKRTRGC (SEQ ID NO: 1) peptide.
(§1) Detection of fluorescent peptides and biotin-conjugated tomato lectin was performed as follows. Fluorescein-conjugated peptide CGNKRTRGC (SEQ ID NO: 1) was prepared as described above. The peptide (100 μg in 200 μl of PBS) was injected into the tail vein of mice bearing MDA-MB-435 breast carcinoma tumors. After 10 minutes, biotin-conjugated lycopersicon esculentum (tomato) lectin (100 μg in 200 μl of PBS; Vector; Burlingame, Calif.) was also injected into the tail vein. After 5 minutes, the mouse was perfused through the heart with 4% paraformaldehyde. Tissues were removed and frozen in O.C.T. embedding medium (Tissue-Tek; Torrence, Calif.). Blood vessels were visualized by detecting the tomato lectin with streptavidin-conjugated Alexa 594 (Molecular Probes; Eugene, Oreg.). Green staining indicated the presence of peptide SEQ ID NO: 1, while red staining indicated the presence of tomato lectin.

[2] = system: MDA-MB-435 human breast carcinoma cell xenografts; assay: Tumor treatment study; format: in vivo, nude mice; details: 67 nmol intravenously twice a week; after about two weeks of treatment; FIG. 8; listed as peptide SEQ ID NO: 1
Method: A tumor treatment study was performed using MDA-MB-435 human breast carcinoma cell xenografts prepared by subcutaneously injecting 1×10^6 cells in 200 μl PBS into nude mice. Mice (five per group) were treated intravenously twice a week with 67 nmol CGNKRTRGC peptide (SEQ ID NO: 1) or with PBS starting four weeks after tumor implantation. Tumor volumes were measured once a week for four weeks.

[3] = system: Cultured MDA-MB-435 cells; assay: Trypan blue cytotoxicity in cultured MDA-MB-435 cells; format: cell-based; details: FIG. 7
Method: Cultured MDA-MB-435 cells were incubated with a control peptide (CGEKRTRGC; SEQ ID NO: 3) or with CGNKRTRGC (SEQ ID NO: 1) at 37° C. for 1, 2 or 4 hours. After staining with trypan blue, which is taken up by cells that are dead or dying, the total number of cells were counted, and the percentage of trypan blue stained cells determined. […] In particular, after four hours incubation, at least 7-fold greater trypan blue uptake was evident in cell cultures incubated with peptide SEQ ID NO: 1 as compared to cultures incubated with control peptide.

[4] = system: primary MDA-MB-435 breast carcinoma tumor cell suspensions; assay: Ex vivo phage binding to primary 435 tumor cell suspensions; design: species or system human; details: synthetic peptide added
Method: Selected phage were enriched 30-fold relative to nonrecombinant T7 phage in the tumor. Forty-eight individual clones were randomly chosen from the in vivo selected pool, and the inserts sequenced as described below. Individual clones were assayed for the ability to bind cultured 435 cells as well as cell suspensions prepared from 435 tumors.
Xenografts, tumor cell suspensions and ex vivo selections were performed essentially as follows. Nude Balb/c mice were subcutaneously injected with 1×10^6 MDA-MB-435 tumor cells to generate breast carcinoma xenografts. Human MDA-MB-435 breast carcinoma xenograft tumors were harvested 9 to 12 weeks after implantation, and tumor cell suspensions prepared using collagenase (0.5 mg/ml, Sigma).
The suspension was subjected to serial washes with 1% BSA in DME to remove unbound phage. Blood vessel endothelial cells were depleted from the tumor cell mixture using magnetic beads (Dynal; Lake Success, N.Y.) coated with anti-mouse CD31 antibody (MEC 13.3; Pharminogen; San Diego, Calif.) according to the manufacturer's instructions. Phage bound to the CD31-negative cell population were rescued by adding bacteria, and the rescued phage titered and amplified in liquid culture.

[5] = system: MDA-MB-435 tumor lymphatic vasculature; assay: Localization in 435 tumors after tail vein injection, with blood vessel and lymphatic marker staining; format: in vivo, nude mice
Method: Localization of phage displaying SEQ ID NO: 1 was analyzed with anti-T7 phage antibody following intravenous injection of CGNKRTRGC (SEQ ID NO: 1)-displaying phage into the tail vein of nude mice carrying an MDA-MB-435 tumor. […] Similar results were obtained by a phage overlay assay in which phage were added onto frozen tissue sections, rather than being injected into the mice.
An anti-T7 antiserum was prepared by immunizing New Zealand white rabbits with 10^10 pfu of T7 nonrecombinant phage (Novagen). The initial immunization performed in complete Freund's Adjuvant, while boosters were administered in incomplete Freund's Adjuvant. The antibody titer was estimated by ELISA, and the antiserum was absorbed against BLT5615 bacterial and mouse liver lysates. Phage were detected using anti-T7 phage antiserum (1:1000 dilution) and goat anti-rabbit secondary antibody conjugated to fluorescein.
as §1
MDA-MB-435 breast carcinoma tumors contain lymphatic vessels that are positive for markers of lymphatic endothelial cells. To determine whether CGNKRTRGC (SEQ ID NO: 1) homed to the 435 tumor lymphatics, tumor sections were stained with the lymphatic markers VEGFR-3 and LYVE-1. Lymphatic vessels were visualized using a rat anti-mouse VEGFR-3 antibody or with rabbit anti-LYVE-1 antibody produced as described below.
LYVE-1 antibody was produced by immunizing New Zealand White rabbits with a peptide encoding the 19 most C-terminal residues of mouse LYVE-1 (Prevo et al., J. Biol. Chem. 276:19420 (2001)) conjugated to keyhole limpet hemocyanin (KLH; Pierce; Iselin, N.J.). The initial immunization was done in complete Freund's Adjuvant, with boosters performed in incomplete Freund's Adjuvant. Specific antibody was obtained following affinity purification with the peptide coupled to Sulfolink Gel (Pierce). Tissues were processed for fifteen minutes following injection with fluorescein-conjugated peptide using rat anti-mouse anti-VEGFR-3, and rabbit anti-LYVE-1. The anti-LYVE-1 antibody was used at a 1:500 dilution on cryo sections, followed by detection with goat anti-rabbit secondary antibody conjugated to Alexa 594 (Molecular Probes).

[6] = system: mitochondrial membranes; details: 10 μM; cited from earlier work
[7] = system: cultured MDA-MB-435 tumor cells; assay: Internalization and subcellular localization in cultured MDA-MB-435 cells; format: cell-based, human; details: one to five hours at 37° C., FIG. 2
Method: A fluorescein-conjugated CGNKRTRGC (SEQ ID NO: 1) peptide was utilized to further analyze cellular internalization and subcellular localization. […] Natl. Acad. Sci. 97:13003 (2000). The fluorescein-conjugated peptides were incubated with cultured MDA-MB-435 tumor cells for one to five hours at 37° C. […] Cultured 435 cells also internalized the CGNKRTRGC (SEQ ID NO: 1) phage, although the phage accumulated in the cytoplasm of the cells.

[8] = system: cultured KRIB cells; assay: Phage binding and peptide internalization in cultured KRIB cells; format: cell-based

| Substance | localization in normal tissues [1] | mean tumor volume compared to mice administered PBS alone [2] | trypan blue uptake relative to cultures incubated with control peptide ([3]; four hours incubation, 37° C.) | cytotoxic effect compared to control peptide SEQ ID NO: 3 ([3]; later time points of 1, 2 or 4 hours, listed as peptide SEQ ID NO: 1) | inhibition of binding of CGNKRTRGC phage by synthetic peptide [4] | co-localization with macrophage marker F4/80 ([5]; VEGFR-3 positive single cells in tumor) | localization within 435 tumors after tail vein injection ([5]; mouse, in vivo) | mitochondrial swelling [6] | uptake and subcellular localization of fluorescein-conjugated peptide ([7]; listed as fluorescein-conjugated SEQ ID NO: 1) | uptake and subcellular localization of fluorescein-conjugated peptide ([7]; listed as fluorescein-labeled peptide SEQ ID NO: 1) | internalization of fluorescein-labeled peptide by cultured KRIB cells [8] | co-localization with lymphatic markers VEGFR-3 and LYVE-1 ([5]; 435 tumor tissue, FIG. 5) | internalization and nuclear transport in vivo ([5]; 435 tumor tissue, FIG. 5) | internalization and nuclear transport in vivo ([5]; 435 tumor tissue, FIG. 5, listed as fluorescein-conjugated SEQ ID NO:1) | internalization and nuclear transport in vivo ([5]; 435 tumor tissue, FIG. 5, listed as fluorescein-conjugated peptide (SEQ ID NO: 1)) | co-localization with blood vessels labeled with biotin-conjugated tomato lectin ([5]; FIGS. 3A-C) | blood vessel markers Meca-32 and CD31 on the vessels in which the substance localized ([5]; mouse, in vivo) |
| --- | --- | --- | --- | --- | --- | --- | --- | --- | --- | --- | --- | --- | --- | --- | --- | --- | --- |
| CGNKRTRGC [CGNKRTRGC (SEQ ID NO: 1) peptide] | Fluorescence was seen only in the kidney tubuli | at least several fold less; also recorded: slowed significantly | at least 7 fold | significantly enhanced cytotoxic effect; also recorded: significantly enhanced cytotoxicity | inhibited binding | lack of co-localization | accumulated in VEGFR-3 positive single cells within the tumor |  |  |  |  |  |  |  |  |  |  |
| D(KLAKLAK)2 |  |  |  |  |  |  |  | marked mitochondrial swelling |  |  |  |  |  |  |  |  |  |
| fluorescein-conjugated CGNKRTRGC (SEQ ID NO: 1) peptide: fluorescein-conjugated CGNKRTRGC peptide (cysteine pairing not given here; also: fluorescein conjugate, site not given here) |  |  |  |  |  |  | localized in vessel-like structures and in individual cells within the tumor |  | internalized and translocated to the nucleus | internalized | internalized | co-localized | internalized and transported into nuclei | internalized and transported into nuclei | accumulated in the nuclei lining the vessel-like structures | notable lack of co-localization | negative |
